Common to all, as to experiment: cryo-EM structure ([…] A)
Experiment [1] concerns the target T1, Drosophila complex I (NADH-binding site at the FMN cofactor) (Drosophila melanogaster, UniProt Q9VMI3).
T1 construct: gene ND-51; native 43-subunit complex I, ~1 MDa monomer, purified from mitochondrial membranes of whole adult flies in DDM; no tag; with NADH dehydrogenase [ubiquinone] iron-sulfur protein 2; NADH dehydrogenase [ubiquinone] iron-sulfur protein 7; NADH-ubiquinone oxidoreductase chain 1
The note with it: co-purified; Dm1 active state.

In experiment [2] the test system is T2, Drosophila complex I (ubiquinone-binding site; subunits NDUFS2, NDUFS7, ND1, ND3, ND6).
T2 construct: gene ND-49; native 43-subunit complex I (14 core, 29 supernumerary), ~1 MDa monomer, purified from mitochondrial membranes of whole adult flies in DDM; no tag; NDUFA2 and NDUFC1 absent; with NADH dehydrogenase [ubiquinone] flavoprotein 1
T2 sequence (Q9V4E0 39-468): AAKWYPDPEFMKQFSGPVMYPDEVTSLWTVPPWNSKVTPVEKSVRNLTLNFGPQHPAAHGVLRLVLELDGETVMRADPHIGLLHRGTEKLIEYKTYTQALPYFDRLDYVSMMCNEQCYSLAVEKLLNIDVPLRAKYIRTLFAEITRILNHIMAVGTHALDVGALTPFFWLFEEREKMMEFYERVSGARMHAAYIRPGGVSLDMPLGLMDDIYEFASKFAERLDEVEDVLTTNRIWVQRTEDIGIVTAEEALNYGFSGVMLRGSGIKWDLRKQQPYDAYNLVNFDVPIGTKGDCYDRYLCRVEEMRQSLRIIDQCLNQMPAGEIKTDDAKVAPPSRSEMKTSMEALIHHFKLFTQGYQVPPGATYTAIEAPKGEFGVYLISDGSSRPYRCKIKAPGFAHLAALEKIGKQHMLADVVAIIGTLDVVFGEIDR
T2 sequence (Q9VXK7 40-221, further chain): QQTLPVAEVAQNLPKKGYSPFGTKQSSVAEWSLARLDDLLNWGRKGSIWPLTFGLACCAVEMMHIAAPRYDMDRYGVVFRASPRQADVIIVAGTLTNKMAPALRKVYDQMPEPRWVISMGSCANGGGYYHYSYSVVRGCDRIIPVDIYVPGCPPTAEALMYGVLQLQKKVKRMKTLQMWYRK
T2 sequence (C7DZL9 1-315, further chain): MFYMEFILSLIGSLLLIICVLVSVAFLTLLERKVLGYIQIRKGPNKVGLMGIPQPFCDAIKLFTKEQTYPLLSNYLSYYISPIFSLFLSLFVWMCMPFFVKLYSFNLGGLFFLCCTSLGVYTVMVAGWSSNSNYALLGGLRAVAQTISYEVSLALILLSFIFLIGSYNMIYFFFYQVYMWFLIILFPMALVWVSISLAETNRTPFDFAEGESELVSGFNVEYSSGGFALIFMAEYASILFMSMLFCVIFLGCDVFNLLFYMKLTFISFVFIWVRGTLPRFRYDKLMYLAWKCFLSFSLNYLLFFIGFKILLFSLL
T2 sequence (P18930 whole entry, further chain): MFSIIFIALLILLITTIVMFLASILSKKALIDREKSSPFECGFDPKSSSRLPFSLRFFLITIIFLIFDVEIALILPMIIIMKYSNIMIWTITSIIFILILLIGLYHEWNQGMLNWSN
T2 sequence (P18933 1-173, further chain): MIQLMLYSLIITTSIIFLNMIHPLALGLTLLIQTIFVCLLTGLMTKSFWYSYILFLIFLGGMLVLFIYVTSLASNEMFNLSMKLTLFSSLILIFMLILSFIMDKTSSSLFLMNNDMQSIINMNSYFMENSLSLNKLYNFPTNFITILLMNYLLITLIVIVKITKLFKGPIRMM
Further details: species or system Drosophila melanogaster. Particulars: co-purified; Dm1 active state; partially inserted in ubiquinone channel; ubiquinone-9 or -10 referred to as Q9.

Experiment [3] has as its target T3, subunit NDUFA10 of Drosophila complex I (Drosophila melanogaster, UniProt P91929).
T3 construct: gene ND-42; subunit within native 43-subunit complex I purified from mitochondrial membranes of whole adult flies; no tag
T3 sequence (P91929 61-407): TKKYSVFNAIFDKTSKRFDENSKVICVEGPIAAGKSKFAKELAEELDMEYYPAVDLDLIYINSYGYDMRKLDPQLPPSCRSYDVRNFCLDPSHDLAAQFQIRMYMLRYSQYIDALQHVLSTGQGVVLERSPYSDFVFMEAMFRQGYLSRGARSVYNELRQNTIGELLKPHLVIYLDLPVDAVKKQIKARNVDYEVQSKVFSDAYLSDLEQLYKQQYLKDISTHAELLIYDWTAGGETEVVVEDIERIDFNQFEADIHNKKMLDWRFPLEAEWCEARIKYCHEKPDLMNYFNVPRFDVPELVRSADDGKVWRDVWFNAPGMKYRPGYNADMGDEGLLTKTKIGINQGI
In kind it is binding. Particulars: modelled in Dm1 map; identity taken from earlier work.

Each structure is given as a SMILES string.

T1 sequence (Q9VMI3 34-474, one chain of several): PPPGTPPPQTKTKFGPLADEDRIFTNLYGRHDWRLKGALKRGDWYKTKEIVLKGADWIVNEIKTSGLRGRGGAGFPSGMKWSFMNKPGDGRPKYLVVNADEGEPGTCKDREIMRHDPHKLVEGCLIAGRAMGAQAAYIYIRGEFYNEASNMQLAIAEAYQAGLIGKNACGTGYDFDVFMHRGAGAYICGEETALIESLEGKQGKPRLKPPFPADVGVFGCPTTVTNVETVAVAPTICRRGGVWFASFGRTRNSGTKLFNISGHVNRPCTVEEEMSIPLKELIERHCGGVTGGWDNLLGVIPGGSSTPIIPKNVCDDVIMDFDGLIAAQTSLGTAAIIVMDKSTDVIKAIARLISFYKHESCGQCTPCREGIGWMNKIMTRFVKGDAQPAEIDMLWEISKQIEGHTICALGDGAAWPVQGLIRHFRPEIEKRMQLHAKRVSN

Consider `Cc1cc2nc3c(=O)[nH]c(=O)nc-3n(C[C@H](O)[C@H](O)[C@H](O)COP(=O)(O)O)c2cc1C` [FMN], for which the “cryo-EM structure (3.28 A)” value in experiment [1] is on record as “The NADH-binding site at the flavin mononucleotide (FMN) cofactor”. Turning to `COC1=C(OC)C(=O)C(C/C=C(\C)CC/C=C(\C)CC/C=C(\C)CC/C=C(\C)CC/C=C(\C)CC/C=C(\C)CC/C=C(\C)CC/C=C(\C)CCC=C(C)C)=C(C)C1=O` [Q9], the “cryo-EM structure (3.28 A)” value in experiment [2] was “density for Q9 is observed within the site, although the Q9 is only partially inserted”.

For the compound `Nc1nc2c(ncn2[C@H]2C[C@H](O)[C@@H](COP(=O)(O)OP(=O)(O)OP(=O)(O)O)O2)c(=O)[nH]1` [dGTP], the “cryo-EM structure (3.28 A)” value in experiment [3] is on record as “dGTP was modelled in subunit NDUFA10”.
